The target of one experiment is human EP4 receptor (Homo sapiens (Human), UniProt P35408). In words: EP4 antagonistic activity measurement experiment using prostanoid receptor subtype expressing cells. The experiment is classed as cell-based. The note with it: CHO cells expressing human EP4 receptor; inhibition of cAMP production by PGE2 10 nM; 30 minutes at room temperature. Here is the method: CHO cells expressing human EP4 receptor subtypes were prepared according to the methods of Nishigaki et al. (Non-Patent Literature 4), and used for experiment. Cells cultured to subconfluent were detached, and suspended in an assay medium (MEM containing 1 mmol/L IBMX, 1% HSA) such that a concentration became 1×10^6 cells/mL. For reaction, PGE2 was added to the cell suspension (25 μL) in a final concentration of 10 nmol/L, either alone or as a 25-μL PGE2 solution containing the test compound. After 30 minutes of reaction at room temperature, the amount of cAMP in the cells was quantified according to the method in the descriptions of the cAMP assay kit (CISBIO).
Chain of human EP4 receptor (P35408 whole entry): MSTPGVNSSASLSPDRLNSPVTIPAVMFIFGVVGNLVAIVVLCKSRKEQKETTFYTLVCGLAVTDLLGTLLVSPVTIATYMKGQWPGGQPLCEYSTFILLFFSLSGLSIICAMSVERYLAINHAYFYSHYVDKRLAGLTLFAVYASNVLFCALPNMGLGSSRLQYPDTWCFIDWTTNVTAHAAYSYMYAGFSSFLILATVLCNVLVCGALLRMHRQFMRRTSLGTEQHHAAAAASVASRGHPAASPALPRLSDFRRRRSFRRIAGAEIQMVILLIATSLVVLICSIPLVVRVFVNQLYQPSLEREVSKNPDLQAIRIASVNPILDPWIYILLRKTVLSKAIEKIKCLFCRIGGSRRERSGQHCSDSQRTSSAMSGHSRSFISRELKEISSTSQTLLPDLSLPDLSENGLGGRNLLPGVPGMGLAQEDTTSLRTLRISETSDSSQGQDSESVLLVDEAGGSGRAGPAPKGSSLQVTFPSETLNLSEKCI
Note here that the antagonistic effect (IC50 value) of the test compound was calculated as a value that represents an inhibition rate against a reaction with PGE2 alone at 10 nM, a concentration that produces a submaximal cAMP producing effect.
For orientation: Changes in cAMP serve as a functional read-out for many G protein-coupled receptors.

The next experiment addresses human EP3 receptor (Homo sapiens (Human), UniProt P43115). In words: EP3 binding activity measurement experiment using prostanoid receptor subtype expressing cells. The note with it: human EP3 receptor expressing cell membrane fraction; [3H]-PGE2 2.5 nmol/L; Ki calculated from estimated IC50. As to the method:
To each well of a 96 well plate, 10 μL of a medium (dimethyl sulfoxide; DMSO) which had been 10-fold diluted with an assay buffer solution (10 mmol/L KH2PO4—KOH containing 1 mmol/L EDTA, 10 mmol/L Mg^2+ and 100 mmol/L NaCl, pH6.0) or a DMSO solution of a test compound (final concentration of DMSO: 0.5%), 90 μL of assay buffer solution, 50 μL of 10 nmol/L [^3H]-PGE2 (final concentration: 2.5 nmol/L), and 50 μL of human EP3 receptor expressing cell membrane fraction (manufactured by Millipore) (membrane protein mass: 2.5 μg) were placed, and subjected to incubation at room temperature. In nonspecific binding group, instead of the medium, […] of PGE2 was added (final concentration of PGE2: 10 μmol/L). After 60 minutes, a membrane fraction was subjected to suction filtration using a cell harvester, and collected onto a glass fiber (GF/B) plate (hereinafter, “filter plate”) which had been wetted with a washing buffer solution (10 mmol/L KH2PO4—KOH containing 100 mmol/L NaCl, pH6.0) in advance. Furthermore, an operation of adding about 0.2 mL of the washing buffer solution to the 96 well plate after suction filtration, and carrying out suction filtration was repeated twice, and the remaining membrane fractions were collected. The filter plate was washed with […] of washing buffer solution twice, and then dried at 50° C. to 60° C. for about 60 minutes. After an accessary back seal was attached to the bottom surface of the filter plate, about 50 μL per well of liquid scintillation cocktail was added to the filter plate, and a scaling film sheet was attached to the upper surface of the filter plate. The filter plate was shaken, and then radioactivity (cpm) of the filter plate was measured using a microplate scintillation counter. A specific binding amount of [^3H]-PGE2 to EP3 receptor was calculated by subtracting the radioactivity of the nonspecific binding group from the radioactivity other than the radioactivity of the nonspecific binding group. The inhibition rate by the test compound was calculated from the specific binding amount of [^3H]-PGE2 in a medium group and the compound of the present invention group, a Ki value (dissociation constant of the test compound) was calculated from estimated IC50 value (the concentration of the test compound required for inhibiting 50% with respect to the specific binding amount of the medium group) according to the following formula.
Note here that the Kd value of [^3H]-PGE2 was estimated from nonlinear regression analysis by calculating a specific binding amount at the time when [^3H]-PGE2 having various concentrations according to the above method was added. As a result, it was shown that the compound of the present invention had weak binding activity with respect to EP3 receptor, and was an antagonist selective to the EP4 receptor. Note here that binding activities with respect to EP1 and EP2 receptors can be measured by the same method as the measurement experiment of the EP3 binding activity measurement experiment.

In general, IC50 refers to the concentration that gives 50% inhibition. A low value points to inhibition by little substance. As a reminder, the Ki is a dissociation constant, usually derived from enzyme kinetics or from competition with a known ligand.

Structures are written as SMILES.

Chain of human EP3 receptor (P43115 whole entry): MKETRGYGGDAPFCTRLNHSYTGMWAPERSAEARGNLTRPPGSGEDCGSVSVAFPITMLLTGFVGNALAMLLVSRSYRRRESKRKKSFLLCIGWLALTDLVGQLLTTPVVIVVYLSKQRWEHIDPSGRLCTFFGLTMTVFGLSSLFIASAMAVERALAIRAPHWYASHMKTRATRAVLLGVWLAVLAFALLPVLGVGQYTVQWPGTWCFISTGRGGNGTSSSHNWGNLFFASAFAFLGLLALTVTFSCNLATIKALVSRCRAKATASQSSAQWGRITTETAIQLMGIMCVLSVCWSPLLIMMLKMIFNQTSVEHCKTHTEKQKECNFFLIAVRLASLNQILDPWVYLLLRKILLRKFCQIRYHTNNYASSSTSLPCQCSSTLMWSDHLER

Consider `COCCNC(=O)c1ccc2c(C)cn(C(C)C(=O)Nc3cc(Cn4cc(C)cn4)ccc3CCCC(=O)O)c2c1` (single isomer, unassigned) [Example 3-9(2), 4-{2-[(2-{6-[(2-methoxyethyl)carbamoyl]-3-methyl-1H-indol-1-yl}propanoyl)amino]-4-[(4-methyl-1H-pyrazol-1-yl)methyl]phenyl}butanoic acid], for which the IC50 against human EP4 receptor was determined as 0.7 nM. Besides, the Ki at human EP3 receptor is 410 nM.

`CNC(=O)c1ccc2c(c1)c(C)cn2C(C)C(=O)Nc1cc(Cn2cc(C)cn2)ccc1CCCC(=O)O` (single isomer, unassigned) [Example 8-3(2), 4-{2-({2-[3-methyl-5-(methylcarbamoyl)-1H-indol-1-yl]propanoyl}amino)-4-[(4-methyl-1H-pyrazol-1-yl)methyl]phenyl}butanoic acid]: at human EP4 receptor, the IC50 came to 4.8 nM. In addition, the Ki at human EP3 receptor is 1500 nM.

With `COCCNC(=O)c1ccc2c(c1)c(C)cn2C(C)C(=O)Nc1cc(Cn2cc(C)cn2)ccc1CCCC(=O)O` (single isomer, unassigned) [Example 8-13(2), 4-{2-[(2-{5-[(2-methoxyethyl)carbamoyl]-3-methyl-1H-indol-1-yl}propanoyl)amino]-4-[(4-methyl-1H-pyrazol-1-yl)methyl]phenyl}butanoic acid], half-maximal inhibition against human EP4 receptor (IC50) required 6.3 nM. Moreover, at human EP3 receptor, the Ki is 1600 nM. Turning to `COCCNC(=O)c1ccc2c(C)cn(C(C)C(=O)Nc3cc(C#N)ccc3CCCC(=O)O)c2c1` (single isomer, unassigned) [Example 11-15(2), 4-{4-cyano-2-[(2-{6-[(2-methoxyethyl)carbamoyl]-3-methyl-1H-indol-1-yl}propanoyl)amino]phenyl}butanoic acid], the IC50 at human EP4 receptor was found to be 1.9 nM. Also, the Ki at human EP3 receptor is 2300 nM. `CNC(=O)c1ccc2c(C)cn(C(C)C(=O)Nc3cc(-c4nnc(C)o4)ccc3CCCC(=O)O)c2c1` (single isomer, unassigned) [Example 15-1(2), 4-[2-({2-[3-methyl-6-(methylcarbamoyl)-1H-indol-1-yl]propanoyl}amino)-4-(5-methyl-1,3,4-oxadiazol-2-yl)phenyl]butanoic acid] gave an IC50 against human EP4 receptor of 6.4 nM. Take `CC(C(=O)Nc1cc(C#N)ccc1CCCC(=O)O)c1c[nH]c2ccccc12` (stereo not shown) [4-[4-cyano-2-[2-(indol-3-yl)propanoylamino]phenyl]butanoic acid, reference compound]: the IC50 on human EP4 receptor came to 360 nM. On to `CNC(=O)c1ccc2c(C)cn(C(C)C(=O)Nc3cc(CN4CCCS4(=O)=O)ccc3CCCC(=O)O)c2c1` (stereo not shown) [Example 1, 4-{4-[(1,1-dioxide-1,2-thiazolidin-2-yl)methyl]-2-({2-[3-methyl-6-(methylcarbamoyl)-1H-indol-1-yl]propanoyl}amino)phenyl}butanoic acid], for which half-maximal inhibition on human EP4 receptor (IC50) required 27 nM. Moreover, the Ki on human EP3 receptor was above 10000 nM. At human EP4 receptor, `CNC(=O)c1ccc2c(C)cn(C(C)C(=O)Nc3cc(COc4cc(C)nc(C)c4)ccc3CCCC(=O)O)c2c1` (stereo not shown) [Example 1-5, 4-[4-{[(2,6-dimethyl-4-pyridinyl)oxy]methyl}-2-({2-[3-methyl-6-(methylcarbamoyl)-1H-indol-1-yl]propanoyl}amino)phenyl]butanoic acid] had an IC50 of 4.9 nM.

With `CNC(=O)c1ccc2c(C)cn(C(C)C(=O)Nc3cc(Cn4cc(Cl)cn4)ccc3CCCC(=O)O)c2c1` (stereo not shown) [Example 1-14, 4-{4-[(4-chloro-1H-pyrazol-1-yl)methyl]-2-({2-[3-methyl-6-(methylcarbamoyl)-1H-indol-1-yl]propanoyl}amino)phenyl}butanoic acid], at human EP4 receptor, the IC50 was determined as 3.3 nM. Molecule `CNC(=O)c1ccc2c(C)cn(C(C)C(=O)Nc3cc(CN4CCCCS4(=O)=O)ccc3CCCC(=O)O)c2c1` (stereo not shown) [Example 2, 4-{4-[(1,1-dioxide-1,2-thiazinan-2-yl)methyl]-2-({2-[3-methyl-6-(methylcarbamoyl)-1H-indol-1-yl]propanoyl}amino)phenyl}butanoic acid] displayed an IC50 against human EP4 receptor of 39 nM. Take `CNC(=O)c1ccc2c(C)cn(C(C)C(=O)Nc3cc(Cn4cc5c(n4)CCC5)ccc3CCCC(=O)O)c2c1` (stereo not shown) [Example 2-18, 4-[4-(5,6-dihydrocyclopenta[c]pyrazol-2(4H)-ylmethyl)-2-({2-[3-methyl-6-(methylcarbamoyl)-1H-indol-1-yl]propanoyl}amino)phenyl]butanoic acid]: on human EP4 receptor, it took 5.5 nM to reach half-maximal inhibition (IC50). For `CCNC(=O)c1ccc2c(C)cn([C@H](C)C(=O)Nc3cc(C#N)ccc3CCCC(=O)O)c2c1` [Example 11-1(2)], on human EP4 receptor, the IC50 was found to be 1.3 nM. At human EP4 receptor, `Cc1cn(C(C)C(=O)Nc2cc(C#N)ccc2CCCC(=O)O)c2cc(C(=O)NCc3ccccc3)ccc12` (stereo not shown) [Example 11-8, 4-[2-({2-[6-(benzylcarbamoyl)-3-methyl-1H-indol-1-yl]propanoyl}amino)-4-cyanophenyl]butanoic acid] returned an IC50 of 4 nM. Still for that read-out and setting: with `CNC(=O)c1ccc2c(C)cn(C(C)C(=O)Nc3cc(Oc4ccccc4)ccc3CCCC(=O)O)c2c1` (stereo not shown) [Example 13, 4-[2-({2-[3-methyl-6-(methylcarbamoyl)-1H-indol-1-yl]propanoyl}amino)-4-phenoxyphenyl]butanoic acid] the figure was 0.79 nM. In turn, `CNC(=O)c1ccc2c(C)cn(C(C)C(=O)Nc3cc(C(O)c4cnn(C)c4)ccc3CCCC(=O)O)c2c1` (stereo not shown) [Example 18-3] returned a concentration for half-maximal inhibition (IC50) against human EP4 receptor of 6.2 nM. In the case of `CNC(=O)c1ccc2c(C)cn(C(C)C(=O)Nc3cc(C(=O)c4cnn(C)c4)ccc3CCCC(=O)O)c2c1` (stereo not shown) [Example 18-5(2)], the IC50 on human EP4 receptor came to 3.2 nM. The Ki on human EP3 receptor was 120 nM.

The record behind these values is patent US11479550B2, “EP4 antagonist” (ONO PHARMACEUTICAL CO., LTD., priority 2017, dated 2022).
